{"source": "paper PMC10366102", "about": "“Dose escalation and expansion cohorts in patients with advanced breast cancer in a Phase I study of the CDK7-inhibitor samuraciclib” (Nature Communications, 2023)", "key": {"[1]": {"experiment": "Module 4 food effect study", "type": "in vivo, human", "description": "Carrick Therapeutics CT7001_001, Volume 3, Module 1, Part B-1 (TNBC) […]\nin a test using the whole-cell patch-clamp technique (human embryonic kidney [HEK] cells transfected with hERG), and the CT7001 IC50 in the K+ channel was determined to be greater […]\nCardiovascular toxicity potential was also studied in vivo in dogs. Oral administration of 5, 15, and 20 mg/kg CT7001 had no effect on haemodynamic parameters, ECG parameters, or body temperature in the dog, compared with control article (vehicle) administration.\nEffects of CT7001 on the central nervous system (CNS [Irwin]) and respiratory systems were […]\nCT7001 has low mutagenic potential. At concentrations up to the lower limit of toxicity, it induced no mutations in a five strains Ames test.\n2.3.2 Current Clinical Data of CT7001\nA first-in-human multi-module Phase I/II clinical study commenced in November 2017 […]\nonly clinical study conducted to date.\nThe single- and multiple-ascending dose Phase 1a part of the study (Module 1, Part A) is completed. 33 dosed patients have completed this part of Module 1 (120, 240, 480 mg and a step-down dose level of 360 mg, all taken once daily (OD), and 180 mg given twice a day (BID), all in a fasted state). […]\nModule 4 evaluated the effect of food on CT7001 bioavailability in cancer patients. […]"}, "[2]": {"tested_on": "advanced solid malignancies", "experiment": "Module 1A anti-tumor activity (RECIST V1.1, PSA)", "type": "in vivo, human", "description": "treatment RECIST assessment. […]\nnumber of patients in the particular analysis population. Duration of response (DoR) was defined as the time from documentation of tumor response to disease progression. Progression-free survival (PFS) was […]\ncause, whichever occurred first. Efficacy results were summarized descriptively and Kaplan -Meier plots provided where appropriate. […]"}, "pCDK1/2/3": {"tested_on": "pCDK1/2/3", "experiment": "Immunohistochemistry H-score in paired tumor biopsies, pCDK1/2/3", "type": "in vivo, human", "description": "Per-protocol ctDNA samples were taken in Module 1B-1 at screening, C1D1, C2D1 and on D1 of alternating cycles from Cycle 3; in Module 2A at screening, C1D1 and at either C2D1 (240 mg) or C2D15 (360 mg) for mutational analysis[24],[33], (Supplementary Information). pPolII in lymphocytes and pPolII and pCDK1/2/3 in core needle tissue samples from patients recruited to the paired biopsy cohort were evaluated for on-target pharmacodynamic analyses. […]\npharmacodynamic effects in tumor tissue. […]\nvariability in H-score was observed between sections. […]\nH-scores for pre-dose and on-study biopsies and summary statistics for the observed H-score when stained for pCDK1/2/3 and pPolII are shown in Supplementary Table 11. Significance was calculated using Student’s one-tailed paired t-test, where the alternative hypothesis was that on-study samples had"}, "[3]": {"design": "method as in ref IB", "settings": "mouse hepatocytes; ref IB; cited from earlier work"}, "MCF7 cell line": {"tested_on": "MCF7 cell line", "experiment": "Antibody validation, immunohistochemistry of treated cells, pCDK1/2/3", "type": "cell-based, human", "settings": "MCF7 cell line treated with samuraciclib", "description": "SUPPLEMENTARY TABLE 12: ANTIBODIES USED\nAntibody Application Supplier & Description Dilution/ Validation […]\nRNA pol II Immunohistoche Abcam Rabbit Immuno- Immunohistochemistry: pSer5 mistry (Fig 3); ab193467 monoclonal histochemistry: Positive nuclear staining Flow cytometry [EPR19015] to 1 in 8000 in normal spleen\n(Supplementary RNA 0.02 µg/mL samples. Significant\nFigure 5) polymerase II reduction in staining in CTD repeat Flow cytometry: MCF7 cell line treated\nYSPTSPS 1 in 100 with samuraciclib. […]\nintensity of labelling in […]\npCDK1/2/ Immunohistoche Abcam Rabbit 1 in 500 Immunohistochemistry:\n3 mistry (Fig 3) ab201008 monoclonal 1.2 μg/mL Positive nuclear staining [EPR19546] to in normal tonsil samples.\nT161) + CDK2 staining in MCF7 cell\n(phospho T160) line treated with\nGoat anti- Flow cytometry Abcam Polyclonal goat 1 in 1000 Flow cytometry: No Rabbit IgG (Supplementary ab150077 anti-rabbit IgG 2.0 μg/mL significant binding to H&L Figure 5) H&L peripheral blood\nAlexaFluor conjugated to mononucleated cells in 488 AlexaFluor 488 absence of primary"}, "[4]": {"settings": "Module 1A, 36 evaluable patients"}, "[5]": {"settings": "two castrate-resistant prostate cancer patients"}}, "note": "Values joined by “and” are separate entries in the source; they are usually repeats but may differ in a detail not shown here. Equal values may be shown once."}
{"smiles": "CC(C)c1cnn2c(NCc3ccccc3)cc(NC[C@H]3CCNC[C@@H]3O)nc12", "note": "[samuraciclib, Samuraciclib]", "values": [{"measurement": "Food effect on exposure or % variability", "setting": "[1]", "value": "no food effect was seen"}, {"measurement": "Best change in lesion size on CT scan", "setting": "[2]; 1 colorectal cancer patient, 120 mg", "value": -21, "unit": "%"}, {"measurement": "Decline in cancer antigen CA 15-3", "setting": "[2]; 1 patient with HR-positive BC, interim", "value": 30, "unit": "%"}, {"measurement": "Duration of stable disease", "setting": "[2]; 1 patient, HR-positive BC, 240 mg, ongoing", "value": "≥ 12", "unit": "weeks"}, {"measurement": "Duration of stable disease", "setting": "[2]; 1 patient, castrate-refractory prostate cancer, 240 mg, cut-off 24-September-2018", "value": 27, "unit": "weeks"}, {"measurement": "Duration of stable disease", "setting": "[2]; 1 patient, castrate-refractory prostate cancer, 360 mg, ongoing", "value": "≥ 12", "unit": "weeks"}, {"measurement": "Duration of stable disease", "setting": "[2]; 1 patient, chondrosarcoma, 360 mg, ongoing", "value": "≥ 12", "unit": "weeks"}, {"measurement": "Duration of stable disease", "setting": "[2]; 1 patient, oesophageal cancer, 240 mg", "value": 12, "unit": "weeks"}, {"measurement": "Duration of stable disease", "setting": "[2]; 1 patient, small-cell lung cancer, 240 mg", "value": 15, "unit": "weeks"}, {"measurement": "Decline in PSA", "setting": "[2]; 2/2 patients with castrate-refractory prostate cancer, interim, listed as CT7001", "value": "45% and 30%"}, {"measurement": "Duration of stable disease", "setting": "[2]; 2 patients, colorectal cancer, 120 mg, each", "value": 18, "unit": "weeks"}, {"measurement": "Best objective response: Complete response", "setting": "[2]; Module 1A N = 36", "value": "0 n (%)"}, {"measurement": "Best objective response: Partial response", "setting": "[2]; Module 1A N = 36", "value": "1 (2.8) n (%)"}, {"measurement": "Best objective response: Progressive disease", "setting": "[2]; Module 1A N = 36", "value": "17 (47.2) n (%)"}, {"measurement": "Best objective response: Stable disease", "setting": "[2]; Module 1A N = 36", "value": "18 (50.0) n (%)"}, {"measurement": "Disease control rate", "setting": "[2]; Module 1A N = 36", "value": "19 (52.8) n (%)"}, {"measurement": "Disease control rate", "setting": "[2]; [4]", "value": "53% and 52.8%"}, {"measurement": "Patients maintaining stable disease ≥ 12 weeks", "setting": "[2]; [4]", "value": 38.9, "unit": "%"}, {"measurement": "Duration of partial response", "setting": "[2]; heavily pre-treated HR+ breast cancer patient, 240 mg OD monotherapy", "value": "over 24 weeks"}, {"measurement": "Duration of PSA reduction", "setting": "[2]; [5]", "value": "27 weeks and 45 weeks"}, {"measurement": "Reduction in PSA compared to baseline", "setting": "[2]; [5]", "value": "28% and 44%"}, {"measurement": "pCDK1/2/3 H-Score, On study, average", "setting": "pCDK1/2/3; Average 240mg OD patients, pre-dose 169", "value": 102}, {"measurement": "pCDK1/2/3 H-Score, On study, average", "setting": "pCDK1/2/3; Average 360mg OD patients, pre-dose 119", "value": 118}, {"measurement": "pCDK1/2/3 H-Score, On study, average", "setting": "pCDK1/2/3; Average all patients, pre-dose 144", "value": 110}, {"measurement": "pCDK1/2/3 H-Score, On study", "setting": "pCDK1/2/3; HR+ breast cancer, breast biopsy, 360 mg OD, pre-dose 178", "value": 112}, {"measurement": "pCDK1/2/3 H-Score, On study", "setting": "pCDK1/2/3; HR+ breast cancer, liver biopsy, 240 mg OD, pre-dose 125", "value": 90}, {"measurement": "pCDK1/2/3 H-Score, On study", "setting": "pCDK1/2/3; HR+ breast cancer, liver biopsy, 240 mg OD, pre-dose 234", "value": 151}, {"measurement": "pCDK1/2/3 H-Score, On study", "setting": "pCDK1/2/3; HR+ breast cancer, liver biopsy, 360 mg OD, pre-dose 89", "value": 128}, {"measurement": "pCDK1/2/3 H-Score, On study", "setting": "pCDK1/2/3; HR+ breast cancer, liver biopsy, 360 mg OD, pre-dose 91", "value": 113}, {"measurement": "pCDK1/2/3 H-Score, On study", "setting": "pCDK1/2/3; Rhabdomyosarcoma, axilla biopsy, 240 mg OD, pre-dose 148", "value": 64}, {"measurement": "Levels of pCDK1/2/3 in tumors", "setting": "pCDK1/2/3; paired biopsy cohort", "value": "showed a reduction, although this did not reach statistical significance"}, {"measurement": "Overall turnover", "setting": "[3]", "value": "low"}, {"measurement": "pCDK1/2/3 staining", "setting": "MCF7 cell line", "value": "Significant reduction in"}]}
